Target: Keap1 (Homo sapiens (Human), UniProt Q14145)
Experiment: HEK293 ARE luciferase assay
Type: cell-based
Conditions: HEK-293 ARE firefly luciferase transiently transfected cells; 18 h incubation; mean of 1 to 20 individual measurements
Procedure, shortened: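 Transiently transfected HEK-293 ARE firefly luciferase cells (10,000/well, DMEM with 10% FCS) exposed to compound, 10-point curve from 100 μM top, 0.3% DMSO, 18 h at 37 °C. SteadyGlo luminescence; activity normalised to 30 μM tBHQ (stimulator) and DMSO (neutral), activity threshold 50; means of 1-20 measurements.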

Keap1, sequence (Q14145 whole entry): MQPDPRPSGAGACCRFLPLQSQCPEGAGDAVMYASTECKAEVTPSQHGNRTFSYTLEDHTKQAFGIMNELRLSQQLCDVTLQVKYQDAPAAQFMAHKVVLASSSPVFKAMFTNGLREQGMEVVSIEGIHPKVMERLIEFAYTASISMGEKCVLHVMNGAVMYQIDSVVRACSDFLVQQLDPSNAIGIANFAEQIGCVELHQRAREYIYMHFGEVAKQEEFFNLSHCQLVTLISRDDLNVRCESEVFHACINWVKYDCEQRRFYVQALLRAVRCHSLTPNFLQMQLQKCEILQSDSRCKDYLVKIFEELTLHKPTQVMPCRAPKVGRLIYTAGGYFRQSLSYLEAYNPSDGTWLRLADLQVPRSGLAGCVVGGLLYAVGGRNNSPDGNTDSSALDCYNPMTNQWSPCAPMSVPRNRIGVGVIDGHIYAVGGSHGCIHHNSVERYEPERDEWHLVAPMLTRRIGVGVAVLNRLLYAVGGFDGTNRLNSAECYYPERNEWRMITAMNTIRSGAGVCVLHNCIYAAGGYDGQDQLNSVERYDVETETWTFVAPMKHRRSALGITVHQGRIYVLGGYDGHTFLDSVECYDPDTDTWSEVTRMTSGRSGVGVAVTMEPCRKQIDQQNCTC

COC1(c2cc(C(F)(F)F)ccn2)C=C(C#N)C(=O)C(C)(C)C1 (stereo not drawn) [Compound 1, 3-methoxy-5,5-dimethyl-6-oxo-3-[4-(trifluoromethyl)-2-pyridyl]cyclohexene-1-carbonitrile] and COC1(c2ccc(C(F)(F)F)cn2)C=C(C#N)C(=O)C(C)(C)C1 (stereo not drawn) [Compound 3, 3-methoxy-5,5-dimethyl-6-oxo-3-[5-(trifluoromethyl)-2-pyridyl]cyclohexene-1-carbonitrile] are within 1.5-fold of each other in EC50: 0.408 µM for the first, 0.424 µM for the second.

First: COC1(c2cccc(Br)n2)C=C(C#N)C(=O)C(C)(C)C1 (stereo not drawn) [Compound 2, 3-(6-bromo-2-pyridyl)-3-methoxy-5,5-dimethyl-6-oxo-cyclohexene-1-carbonitrile]
Second: COC1(c2cccc(C(F)(F)F)n2)C=C(C#N)C(=O)C(C)(C)C1 (stereo not drawn) [Compound 20, 3-methoxy-5,5-dimethyl-6-oxo-3-[6-(trifluoromethyl)-2-pyridyl]cyclo-hexene-1-carbonitrile]
The EC50 of the first is 1.8-fold higher: 0.228 µM for the first, 0.126 µM for the second.

First: COC1(c2nccc3ccccc23)C=C(C#N)C(=O)C(C)(C)C1 (stereo not drawn) [Compound 4, 3-(1-isoquinolyl)-3-methoxy-5,5-dimethyl-6-oxo-cyclohexene-1-carbonitrile]
Second: COC1(c2ncccc2-c2ccccc2)C=C(C#N)C(=O)C(C)(C)C1 (stereo not drawn) [Compound 7, 3-methoxy-5,5-dimethyl-6-oxo-3-(3-phenyl-2-pyridyl)cyclohexene-1-carbonitrile]
The EC50 of the first is 14-fold higher: 1.14 µM for the first, 0.082 µM for the second. The second is the more potent here.

First: CC1(C)CC(O)(c2ncccc2C(F)F)C=C(C#N)C1=O (stereo not drawn) [Compound 6, 3-[3-(difluoromethyl)-2-pyridyl]-3-hydroxy-5,5-dimethyl-6-oxo-cyclohexene-1-carbonitrile]
Second: CO[C@]1(c2ncccc2C(F)F)C=C(C#N)C(=O)C2(CC2)C1 [Compound 55, (S)-7-[3-(difluoromethyl)pyridin-2-yl]-7-methoxy-4-oxospiro[2.5]oct-5-ene-5-carbonitrile]
The EC50 of the first is higher: greater than 10 µM for the first, 0.014 µM for the second. The second is the more potent here.

Compared with COC1CN(c2cccc(C3(OC)C=C(C#N)C(=O)C(C)(C)C3)n2)C1 (stereo not drawn) [Compound 8, 3-methoxy-3-[6-(3-methoxyazetidin-1-yl)-2-pyridyl]-5,5-dimethyl-6-oxo-cyclohexene-1-carbonitrile], COC1(c2cccc(-n3ccnc3C)n2)C=C(C#N)C(=O)C(C)(C)C1 (stereo not drawn) [Compound 12, 3-methoxy-5,5-dimethyl-3-[6-(2-methylimidazol-1-yl)-2-pyridyl]-6-oxo-cyclohexene-1-carbonitrile] is 1.6-fold lower in EC50: 0.186 µM for the first, 0.119 µM for the second.

First: COC1(c2ccccn2)C=C(C#N)C(=O)C(C)(C)C1 (stereo not drawn) [Compound 11, 3-methoxy-5,5-dimethyl-6-oxo-3-(2-pyridyl)cyclohexene-1-carbonitrile]
Second: COC1(c2cccnc2Cl)C=C(C#N)C(=O)C(C)(C)C1 (stereo not drawn) [Compound 18, 3-(2-chloro-3-pyridyl)-3-methoxy-5,5-dimethyl-6-oxo-cyclohexene-1-carbonitrile]
The EC50 of the first is 3.1-fold lower: 0.085 µM for the first, 0.265 µM for the second.

First: COC1(c2ccc(C)nc2)C=C(C#N)C(=O)C(C)(C)C1 (stereo not drawn) [Compound 16, 3-methoxy-5,5-dimethyl-3-(6-methyl-3-pyridyl)-6-oxo-cyclohexene-1-carbonitrile]
Second: COC1(c2ccc(C)nc2C)C=C(C#N)C(=O)C(C)(C)C1 (stereo not drawn) [Compound 29, 3-(2,6-dimethylpyridin-3-yl)-3-methoxy-5,5-dimethyl-6-oxocyclohex-1-enecarbonitrile]
The EC50 of the first is 7.3-fold higher: 0.66 µM for the first, 0.091 µM for the second. The second is the more potent here.

First: COC1(c2ccccc2C(F)(F)F)C=C(C#N)C(=O)C(C)(C)C1 (stereo not drawn) [Compound 19, 3-methoxy-5,5-dimethyl-6-oxo-3-[2-(trifluoromethyl)phenyl]cyclohexene-1-carbonitrile]
Second: COC1(c2cccnc2Br)C=C(C#N)C(=O)C(C)(C)C1 (stereo not drawn) [Compound 21, 3-(2-bromo-3-pyridyl)-3-methoxy-5,5-dimethyl-6-oxo-cyclohexene-1-carbonitrile]
The EC50 of the first is 2.7-fold higher: 1.24 µM for the first, 0.452 µM for the second. The second is the more potent here.

Going from COC1(c2ncccc2Br)C=C(C#N)C(=O)C(C)(C)C1 (stereo not drawn) [Compound 22, 3-(3-bromo-2-pyridyl)-3-methoxy-5,5-dimethyl-6-oxo-cyclohexene-1-carbonitrile] to CO[C@]1(c2ncsc2C)C=C(C#N)C(=O)C(C)(C)C1 [Compound 38, (S)-3-methoxy-5,5-dimethyl-3-(5-methylthiazol-4-yl)-6-oxocyclohex-1-enecarbonitrile], the EC50 rises from 0.045 µM to 0.132 µM (2.9-fold). The first is the more potent here.

First: CC1(C)CC(O)(c2ccc(C(F)(F)F)cn2)C=C(C#N)C1=O (stereo not drawn) [Compound 24, 3-hydroxy-5,5-dimethyl-6-oxo-3-[5-(trifluoromethyl)-2-pyridyl]cyclo-hexene-1-carbonitrile]
Second: COC1(c2ncc(F)cc2F)C=C(C#N)C(=O)C(C)(C)C1 (stereo not drawn) [Compound 28, 3-(3,5-difluoropyridin-2-yl)-3-methoxy-5,5-dimethyl-6-oxocyclohex-1-enecarbonitrile]
The EC50 of the first is higher: greater than 10 µM for the first, 0.036 µM for the second.

Going from COC1(c2cccnc2-c2cnn(C)c2)C=C(C#N)C(=O)C(C)(C)C1 (stereo not drawn) [Compound 25, 3-methoxy-5,5-dimethyl-3-[2-(1-methylpyrazol-4-yl)-3-pyridyl]-6-oxo-cyclohexene-1-carbonitrile] to CO[C@]1(c2ncc(F)cc2-c2ccc(=O)n(C)c2)C=C(C#N)C(=O)C(C)(C)C1 [Compound 74, (S)-3-[5-fluoro-3-(1-methyl-6-oxo-3-pyridyl)-2-pyridyl]-3-methoxy-5,5-dimethyl-6-oxo-cyclohexene-1-carbonitrile], the EC50 falls from 0.07 µM to 0.015 µM (4.7-fold). The second is the more potent here.

Compared with COC1(c2cncc(C)n2)C=C(C#N)C(=O)C(C)(C)C1 (stereo not drawn) [Compound 30, 3-methoxy-5,5-dimethyl-3-(6-methylpyrazin-2-yl)-6-oxocyclohex-1-enecarbonitrile], CO[C@]1(c2ncc(C)s2)C=C(C#N)C(=O)C(C)(C)C1 [Compound 40, (S)-3-methoxy-5,5-dimethyl-3-(5-methylthiazol-2-yl)-6-oxocyclohex-1-enecarbonitrile] is 12-fold lower in EC50: 0.458 µM for the first, 0.038 µM for the second. The second is the more potent here.

Compared with CO[C@]1(c2ncc(F)cc2C(F)F)C=C(C#N)C(=O)C(C)(C)C1 [Compound 42, (3S)-3-[3-(difluoromethyl)-5-fluoropyridin-2-yl]-3-methoxy-5,5-dimethyl-6-oxocyclohex-1-ene-1-carbonitrile], CO[C@]1(c2ncc(F)cc2-c2ccns2)C=C(C#N)C(=O)C(C)(C)C1 [Compound 80, (S)-3-(5-fluoro-3-isothiazol-5-yl-2-pyridyl)-3-methoxy-5,5-dimethyl-6-oxo-cyclohexene-1-carbonitrile] is 16-fold lower in EC50: 0.033 µM for the first, 0.002 µM for the second. The second is the more potent here.

First: COC1(c2sc(C)nc2C)C=C(C#N)C(=O)C(C)(C)C1 (stereo not drawn) [Compound 46, 3-(2,4-dimethylthiazol-5-yl)-3-methoxy-5,5-dimethyl-6-oxocyclohex-1-enecarbonitrile]
Second: COC1(c2ncc(C)s2)C=C(C#N)C(=O)C2(CC2)C1 (stereo not drawn) [Compound 64, 7-methoxy-7-(5-methyl-1,3-thiazol-2-yl)-4-oxospiro[2.5]oct-5-ene-5-carbonitrile]
The EC50 of the first is 2.1-fold higher: 0.304 µM for the first, 0.145 µM for the second. The second is the more potent here.

First: COC1(c2ccc(Cl)cn2)C=C(C#N)C(=O)C2(CC2)C1 (stereo not drawn) [Compound 65, 7-(5-chloropyridin-2-yl)-7-methoxy-4-oxospiro[2.5]oct-5-ene-5-carbonitrile]
Second: COC1(c2ncc(F)cc2-c2cncc(S(C)(=O)=O)c2)C=C(C#N)C(=O)C(C)(C)C1 (stereo not drawn) [Compound 96, 3-(5-fluoro-5′-(methylsulfonyl)-[3,3′-bipyridin]-2-yl)-3-methoxy-5,5-dimethyl-6-oxocyclohex-1-ene-1-carbonitrile]
The EC50 of the first is 35-fold higher: 0.247 µM for the first, 0.007 µM for the second.

Reference: US11479539B2, “Small molecule modulators of the BTB domain of Keap1” (MedImmune Limited, priority 2017, dated 2022)
